Experimental data published in PubChem BioAssay (NCI).
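A five-concentration, 48-hour dose response in 96-well plates underlies each endpoint, interpolated linearly between surrounding concentrations. Abbreviation: GI50, concentration required for 50% inhibition of growth. TGI is the concentration that stops growth completely.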

What follows are compounds tested on NCI-H460 lung (assay: growth of human tumour cells (NCI), 48 h).

`O=c1ccn([C@H]2CSC[C@@H](CO)C2)c(=O)[nH]1` and `C1CN2CCN3CCN4CCN1[P+]243` cannot be ordered by TGI: > 100 µM for the first, > 100 µM for the second.

What follows are compounds tested on SNB-19 CNS (assay: growth of human tumour cells (NCI), 48 h).

`CN(C)CC[PH+](c1ccccc1)c1ccccc1.CN(C)CC[PH+](c1ccccc1)c1ccccc1.[Cl-].[Pd+2]` and `O=C(c1ccccc1)c1cc2ccccc2o1` cannot be ordered by GI50: > 100 µM for the first, > 100 µM for the second.

Compared with `O=C(Nc1ccncc1)C(=O)c1cn(S(=O)(=O)c2ccc(F)cc2)c2ccccc12`, `Clc1ccc2[nH]cc(-c3nnnn3-c3ccccc3)c2c1` is 2-fold higher in GI50: 19.5 µM for the first, 38.4 µM for the second.

Going from `C=C(C)[C@@H]1CC[C@]2(C)[C@H](CC=C3[C@@H]4CC(C)(C)CC[C@]4(C(N)=O)CC[C@]32C)[C@@]1(C)CCC#N` to `CCCN1C(=O)N(CCC)C2C1NC(=S)N2/N=C/C=C/c1ccccc1OC` (stereo not drawn), the GI50 falls from 4.05 µM to 1.66 µM (2.4-fold).

Compared with `CO/N=C(\COc1ccc2c(c1)oc(=O)c1cc(OC)ccc12)c1ccc(OC)cc1`, `CCOC(=O)Nc1ccc(-c2nc(-c3cccc(OCCN4CCOCC4)c3)c(-c3ccnc(Br)c3)[nH]2)cc1` is lower in GI50: > 100 µM for the first, 3.81 µM for the second.

Going from `COc1cc(-c2cc(-c3cc4c([nH]c5ccccc54)c(-c4cc(OC)c(OC)c(OC)c4)n3)cc(-c3ccccc3)n2)cc(OC)c1OC` to `COc1cc2c(cc1OCCCNC(=O)c1cccc3c(=O)c4ccccc4[nH]c13)N=C[C@@H]1CCCN1C2=O`, the GI50 falls from 9.92 µM to < 0.0206 µM.

Compared with `O=C1C=CC(=O)c2cc3cc(CBr)ccc3cc21`, `COc1ccc2c(c1)C(=O)c1c-2c(N2CCN(C(=O)CNCCNCCO)CC2)nc2ccccc12` is 1.6-fold lower in GI50: 18.1 µM for the first, 11.1 µM for the second.

For `CCC[CH2][Sn]([Cl])([CH2]CCC)[CH2]CCC`, the GI50 was 0.174 µM.

Compared with `CN(C)CC[PH+](c1ccccc1)c1ccccc1.CN(C)CC[PH+](c1ccccc1)c1ccccc1.[Cl-].[Pd+2]`, `O=C(/C=C/c1cccc2ccccc12)c1ccccc1Cl` is lower in TGI: > 100 µM for the first, 27 µM for the second.

`COc1cc(NCc2ccc3nc(N)nc(N)c3c2C)cc(OC)c1OC` (tested in a mixture with another compound) and `COc1ccc(NC(=O)/C(Cc2cc(=O)oc3cc(O)ccc23)=N\NC(C)(C)C)c(OC)c1` cannot be ordered by TGI: 113 µM for the first, > 100 µM for the second.

`O=C(c1ccccc1)c1cc2ccccc2o1` and `O=C(Nc1nc(=S)c2c(ncn2CCOC(=O)c2ccccc2)[nH]1)c1ccccc1` cannot be ordered by TGI: > 100 µM for the first, > 100 µM for the second.

`O=C(Nc1ccncc1)C(=O)c1cn(S(=O)(=O)c2ccc(F)cc2)c2ccccc12` and `CCOc1ccc(NC(=O)C(=O)CC(=O)c2c(C)n([O-])c3ccccc3[n+]2=O)cc1` cannot be ordered by TGI: > 100 µM for the first, > 100 µM for the second.

`C=C(C)[C@@H]1CC[C@]2(C)[C@H](CC=C3[C@@H]4CC(C)(C)CC[C@]4(C(N)=O)CC[C@]32C)[C@@]1(C)CCC#N` and `OCC1OC(c2nc(C3=NCCCN3)cs2)C(O)C1O` (stereo not drawn) cannot be ordered by TGI: > 100 µM for the first, > 100 µM for the second.

`O=C(c1ccccc1Br)C(F)(F)F` and `O=C(CCc1n[nH]c(=S)o1)Nc1ccccc1C(F)(F)F` cannot be ordered by TGI: > 100 µM for the first, > 100 µM for the second.

`CO/N=C(\COc1ccc2c(c1)oc(=O)c1cc(OC)ccc12)c1ccc(OC)cc1` and `COc1ccc(CC2NCCc3c2[nH]c2ccccc32)cc1` (stereo not drawn) cannot be ordered by TGI: > 100 µM for the first, > 100 µM for the second.

`O=C1/C(=C/c2ccc3c(c2)OCO3)SC2C=Nc3ccccc3N12` (stereo not drawn) and `Clc1ccc2[nH]cc(-c3nnnn3-c3ccccc3)c2c1` cannot be ordered by TGI: > 100 µM for the first, > 100 µM for the second.

`CCCC(=O)Nc1cc2c3c(c1)CCCN3CCC2` and `Cc1ccc(NC(=O)CCc2cc(C(C)(C)C)nc(=S)[nH]2)cc1C` cannot be ordered by TGI: > 10 µM for the first, > 100 µM for the second.

`Cc1cc(Cl)ccc1NC(=O)C(=O)Cc1nc2ccccc2o1` and `Cc1[nH]c2ccccc2c1C(=O)/C=C/c1ccccc1O` cannot be ordered by TGI: > 100 µM for the first, > 100 µM for the second.

`COc1cc(-c2cc(-c3cc4c([nH]c5ccccc54)c(-c4cc(OC)c(OC)c(OC)c4)n3)cc(-c3ccccc3)n2)cc(OC)c1OC` and `COc1cc2c(cc1OCCCNC(=O)c1cccc3c(=O)c4ccccc4[nH]c13)N=C[C@@H]1CCCN1C2=O` cannot be ordered by TGI: > 100 µM for the first, > 45.7 µM for the second.

Going from `O=C1C=CC(=O)c2cc3cc(CBr)ccc3cc21` to `COc1ccc2c(c1)C(=O)c1c-2c(N2CCN(C(=O)CNCCNCCO)CC2)nc2ccccc12`, the TGI falls from > 55 µM to 28.4 µM.

Going from `CCC(C)COC(=O)c1ccc(N=Cc2ccc(C=Nc3ccc(C(=O)OCC(C)CC)cc3)cc2)cc1` (stereo not drawn) to `N#CC(C(=O)C(=O)C(C#N)c1ccc(Br)cc1)c1ccc(Br)cc1` (stereo not drawn), the TGI falls from > 100 µM to 30.7 µM.

`COc1cccc(C2=NC(C(C)C)CO2)c1` (stereo not drawn) and `CCCN1C(=O)N(CCC)C2C1NC(=S)N2/N=C/C=C/c1ccccc1OC` (stereo not drawn) cannot be ordered by TGI: > 100 µM for the first, > 100 µM for the second.

`CCOC(=O)C(=[N+]=[N-])[Si](C)(C)C` and `CCOc1ccc(NC(=O)CC#N)cc1` cannot be ordered by TGI: > 100 µM for the first, > 100 µM for the second.

`CCOC(=O)Nc1ccc(-c2nc(-c3cccc(OCCN4CCOCC4)c3)c(-c3ccnc(Br)c3)[nH]2)cc1` and `O=C1/C(=C/c2ccc(Cl)cc2)CCC1CCN1CCOCC1` (stereo not drawn) cannot be ordered by TGI: > 100 µM for the first, > 100 µM for the second.

`CCCc1nc(NC#N)nc(C(=O)Nc2ccccc2)c1CC` and `O=c1ccn([C@H]2CSC[C@@H](CO)C2)c(=O)[nH]1` cannot be ordered by TGI: > 100 µM for the first, > 100 µM for the second.

Going from `CCC[CH2][Sn]([Cl])([CH2]CCC)[CH2]CCC` to `C1CN2CCN3CCN4CCN1[P+]243`, the TGI rises from 0.346 µM to > 100 µM.

Each compound was assayed on SK-OV-3 ovarian (assay: growth of human tumour cells (NCI), 48 h).

For `CN(C)CC[PH+](c1ccccc1)c1ccccc1.CN(C)CC[PH+](c1ccccc1)c1ccccc1.[Cl-].[Pd+2]`, the GI50 was > 100 µM.

`CN(C)CC[PH+](c1ccccc1)c1ccccc1.CN(C)CC[PH+](c1ccccc1)c1ccccc1.[Cl-].[Pd+2]` was tested, and the TGI was > 100 µM.
